Reference: patent US20080194546A1, “Pyrido-, Pyrazo- and Pyrimido-Pyrimidine Derivatives as mTOR Inhibitors” (KuDOS Pharmaceuticals Limited, priority 2005, published 2008)

biological target: T1, mTOR (Homo sapiens, UniProt P42345); assay: Biological Assay: mTOR enzyme activity, mTOR immunoprecipitated from HeLa cell cytoplasmic extract, recombinant PHAS-1 as substrate; type: biochemical; conditions: Biological Assay, upper bounds; read-out: IC50 values against mTOR
T1 construct: mTOR protein was isolated from HeLa cell cytoplasmic extract by immunoprecipitation; endogenous in cells; host or cells: HeLa cell cytoplasmic extract (immunoprecipitate)

SMILES	IC50
Cc1cc(Nc2ccc3c(N4CCOCC4)nc(N4C[C@@H](C)O[C@@H](C)C4)nc3n2)no1 [Example 2x]	< 10 µM
C[C@@H]1CN(c2nc(N3CCOCC3)c3ccc(-c4ccc5c(c4)OCO5)nc3n2)C[C@H](C)O1 [Example 1ak]	< 10 µM
C[C@@H]1CN(c2nc(N3CCOCC3)c3ccc(N(C)C)nc3n2)C[C@H](C)O1 [Example 2d]	< 10 µM
C[C@@H]1CN(c2nc(N3CCOCC3)c3ccc(Nc4ccc(C5SCCS5)cc4)nc3n2)C[C@H](C)O1 [Example 2ae]	< 10 µM
C[C@@H]1CN(c2nc(N3CCOCC3)c3ccc(Nc4cccc5cccnc45)nc3n2)C[C@H](C)O1 [Example 2o]	< 10 µM
C[C@@H]1CN(c2nc(N3CCOCC3)c3ccc(NS(C)(=O)=O)nc3n2)C[C@H](C)O1 [Example 6]	< 10 µM
C=C(C)CNc1ccc2c(N3CCOCC3)nc(N3C[C@@H](C)O[C@@H](C)C3)nc2n1 [Example 2v]	< 10 µM
Cc1cc([N+](=O)[O-])cc(Cl)c1Nc1ccc2c(N3CCOCC3)nc(N3C[C@@H](C)O[C@@H](C)C3)nc2n1 [Example 2l]	< 10 µM
CCNC(=O)Nc1ccc2c(N3CCOCC3)nc(N3C[C@@H](C)O[C@@H](C)C3)nc2n1 [Example 4a]	< 10 µM
C[C@@H]1CN(c2nc(N3CCOCC3)c3ccc(Nn4cnnc4)nc3n2)C[C@H](C)O1 [Example 2r]	< 10 µM
C[C@@H]1CN(c2nc(N3CCOCC3)c3ccc(-c4ccc5c(c4)OCCCO5)nc3n2)C[C@H](C)O1 [Example 1ba]	< 10 µM
C[C@@H]1CN(c2nc(N3CCOCC3)c3ccc(Nc4cnccn4)nc3n2)C[C@H](C)O1 [Example 2bc]	< 10 µM
C[C@@H]1CN(c2nc(N3CCOCC3)c3ccc(NC4CCC4)nc3n2)C[C@H](C)O1 [Example 2ai]	< 10 µM
CCCCOc1ccc2c(N3CCOCC3)nc(N3C[C@@H](C)O[C@@H](C)C3)nc2n1 [Example 7]	< 10 µM
Cc1nnc(Nc2ccc3c(N4CCOCC4)nc(N4C[C@@H](C)O[C@@H](C)C4)nc3n2)o1 [Example 2ao]	< 10 µM
CC1CCC(Nc2ccc3c(N4CCOCC4)nc(N4C[C@@H](C)O[C@@H](C)C4)nc3n2)CC1 (stereo partly shown) [Example 2al]	< 10 µM
Cc1cccnc1Nc1ccc2c(N3CCOCC3)nc(N3C[C@@H](C)O[C@@H](C)C3)nc2n1 [Example 2bg]	< 10 µM
C[C@@H]1CN(c2nc(N3CCOCC3)c3ccc(Nc4nc[nH]c4C#N)nc3n2)C[C@H](C)O1 [Example 2ar]	< 1 µM
Cc1ccc(-c2ccc3c(N4CCOCC4)nc(N4CCCC[C@@H]4C)nc3n2)cc1 [Example 1s]	< 1 µM
C[C@@H]1CN(c2nc(N3CCOCC3)c3ccc(NC(=O)CSc4ccccc4)nc3n2)C[C@H](C)O1 [Example 5d]	< 10 µM
Cc1ccc(Nc2ccc3c(N4CCOCC4)nc(N4C[C@@H](C)O[C@@H](C)C4)nc3n2)cc1 [Example 2j]	< 1 µM
C[C@@H]1CN(c2nc(N3CCOCC3)c3ccc(Nc4oc(-c5ccccc5)cc4C#N)nc3n2)C[C@H](C)O1 [Example 2ap]	< 1 µM
C[C@@H]1CN(c2nc(N3CCOCC3)c3ccc(-c4ccc5c(c4)OCCO5)nc3n2)C[C@H](C)O1 [Example 1at]	< 1 µM
Cc1cnccc1Nc1ccc2c(N3CCOCC3)nc(N3C[C@@H](C)O[C@@H](C)C3)nc2n1 [Example 2t]	< 1 µM

SMILES	IC50
C/C=C/C(=O)Nc1ccc2c(N3CCOCC3)nc(N3C[C@@H](C)O[C@@H](C)C3)nc2n1 [Example 5c]	< 1 µM
C[C@@H]1CN(c2nc(N3CCOCC3)c3ccc(Nc4ccccc4)nc3n2)C[C@H](C)O1 [Example 2a]	< 1 µM
C[C@@H]1CN(c2nc(N3CCOCC3)c3ccc(-c4ccc(OC(F)(F)F)cc4)nc3n2)C[C@H](C)O1 [Example 1ao]	< 1 µM
CC1CCCCN1c1nc(N2CCOCC2)c2ccc(-c3ccccc3)nc2n1 (stereo not shown) [1 h]	< 10 µM
COc1ccc(-c2ccc3c(N4C[C@@H](C)O[C@@H](C)C4)nc(N4CCOCC4)nc3n2)cc1CO [Example 1ae]	< 1 µM
C[C@@H]1CN(c2nc(N3CCOCC3)c3ccc(NC4CCN(C)CC4)nc3n2)C[C@H](C)O1 [Example 2w]	< 10 µM
C[C@@H]1CN(c2nc(N3CCOCC3)c3ccc(Nc4ccc(-n5cccc5)cc4)nc3n2)C[C@H](C)O1 [Example 2q]	< 1 µM
C[C@@H]1CN(c2nc(N3CCOCC3)c3ccc(-c4ccc([N+](=O)[O-])cc4)nc3n2)C[C@H](C)O1 [Example 1z]	< 1 µM
COc1ccc(-c2ccc3c(N4CCOCC4)nc(N4C[C@@H](C)O[C@@H](C)C4)nc3n2)cc1F [Example 1w]	< 1 µM
Cc1ccc(-n2nc(C)cc2Nc2ccc3c(N4CCOCC4)nc(N4C[C@@H](C)O[C@@H](C)C4)nc3n2)cc1 [Example 2y]	< 10 µM
C[C@@H]1CN(c2nc(N3CCOCC3)c3ccc(Nc4ccncn4)nc3n2)C[C@H](C)O1 [Example 2bb]	< 1 µM
COC(=O)c1cccc(-c2ccc3c(N4CCOCC4)nc(N4C[C@@H](C)O[C@@H](C)C4)nc3n2)c1 [Example 1am]	< 1 µM
C[C@@H]1CN(c2nc(N3CCOCC3)c3ccc(Nc4nc(-c5ccccc5Cl)cs4)nc3n2)C[C@H](C)O1 [Example 2s]	< 10 µM
C[C@@H]1CN(c2nc(N3CCOCC3)c3ccc(-c4ccc5[nH]ccc5c4)nc3n2)C[C@H](C)O1 [Example 1x]	< 1 µM
C[C@@H]1CN(c2nc(N3CCOCC3)c3ccc(Nc4cccc(C(=O)c5ccccc5)c4)nc3n2)C[C@H](C)O1 [Example 2m]	< 10 µM
C[C@@H]1CN(c2nc(N3CCOCC3)c3ccc(NC(=O)C4CCCC4)nc3n2)C[C@H](C)O1 [Example 5b]	< 10 µM
C[C@@H]1CN(c2nc(N3CCOCC3)c3ccc(NC4CCCC4)nc3n2)C[C@H](C)O1 [Example 2ag]	< 10 µM
C[C@@H]1CN(c2nc(N3CCOCC3)c3ccc(NC4CCCCC4)nc3n2)C[C@H](C)O1 [Example 2af]	< 1 µM
C[C@@H]1CN(c2nc(N3CCOCC3)c3ccc(Nc4nccc5cccnc45)nc3n2)C[C@H](C)O1 [Example 2av]	< 1 µM
C[C@@H]1CN(c2nc(N3CCOCC3)c3ccc(Nc4nccc(-c5ccco5)n4)nc3n2)C[C@H](C)O1 [Example 2ax]	< 1 µM
C[C@@H]1CN(c2nc(N3CCOCC3)c3ccc(NCC4CC4)nc3n2)C[C@H](C)O1 [Example 2aj]	< 10 µM
C[C@@H]1CN(c2nc(N3CCOCC3)c3ccc(-c4ccc(Cl)s4)nc3n2)C[C@H](C)O1 [Example 1al]	< 1 µM
Cc1cccc(-c2ccc3c(N4CCOCC4)nc(N4C[C@@H](C)O[C@@H](C)C4)nc3n2)c1 [Example 1aj]	< 1 µM
C[C@H]1CCCCN1c1nc(N2CCOCC2)c2ccc(N)nc2n1 [Example 3b]	< 1 µM

More lines, now with the values ahead:

IC50	SMILES
< 1 µM	C[C@@H]1CN(c2nc(N3CCOCC3)c3ccc(-c4ccc(C(=O)O)s4)nc3n2)C[C@H](C)O1 [Example 1ar]
< 0.1 µM	COc1ccc(-c2ccc3c(N4CCOCC4)nc(N4C[C@@H](C)O[C@@H](C)C4)nc3n2)cc1 [Example 1e]
< 1 µM	CC(=O)c1ccc(-c2ccc3c(N4CCOCC4)nc(N4C[C@@H](C)O[C@@H](C)C4)nc3n2)cc1 [Example 1aq]
< 1 µM	C[C@@H]1CN(c2nc(N3CCOCC3)c3ccc(Nc4cccnc4)nc3n2)C[C@H](C)O1 [Example 2az]
< 1 µM	Cc1ccc(Nc2ccc3c(N4CCOCC4)nc(N4C[C@@H](C)O[C@@H](C)C4)nc3n2)nc1 [Example 2bd]
< 0.1 µM	C[C@@H]1CN(c2nc(N3CCOCC3)c3ccc(-c4ccc(C#N)cc4)nc3n2)C[C@H](C)O1 [Example 1n]
< 1 µM	C[C@@H]1CN(c2nc(N3CCOCC3)c3ccc(-c4ccncc4)nc3n2)C[C@H](C)O1 [Example 1ac]
< 1 µM	COCCN(CCOC)c1nc(N2CCOCC2)c2ccc(-c3ccc(OC)c(CO)c3)nc2n1 [Example 1af]
< 1 µM	C[C@@H]1CN(c2nc(N3CCOCC3)c3ccc(-c4ccoc4)nc3n2)C[C@H](C)O1 [Example 1aa]
< 0.1 µM	COc1ccc(-c2ccc3c(N4C[C@@H](C)O[C@@H](C)C4)nc(N4CCOC[C@@H]4C)nc3n2)cc1CO [Example 1p]
< 0.1 µM	Cc1ccc(-c2ccc3c(N4CCOCC4)nc(N4C[C@@H](C)O[C@@H](C)C4)nc3n2)cc1 [Example 1d]
< 1 µM	C[C@@H]1CN(c2nc(N3CCOCC3)c3ccc(NC4CC4)nc3n2)C[C@H](C)O1 [Example 2ah]
< 1 µM	Cc1cccc(Nc2ccc3c(N4CCOCC4)nc(N4C[C@@H](C)O[C@@H](C)C4)nc3n2)n1 [Example 2be]
< 1 µM	C[C@@H]1CN(c2nc(N3CCOCC3)c3ccc(Nc4ccnc(-c5cccnc5)n4)nc3n2)C[C@H](C)O1 [Example 2aw]
< 1 µM	C[C@@H]1CN(c2nc(N3CCOCC3)c3ccc(-c4cccc(N5CCOCC5)c4)nc3n2)C[C@H](C)O1 [Example 1as]
< 1 µM	C[C@@H]1CN(c2nc(N3CCOCC3)c3ccc(-c4ccc(C=O)s4)nc3n2)C[C@H](C)O1 [Example 1ap]
< 1 µM	COc1ccc(/C=C/c2ccc(Nc3ccc4c(N5CCOCC5)nc(N5C[C@@H](C)O[C@@H](C)C5)nc4n3)cc2)cc1 [Example 2p]
< 1 µM	C[C@@H]1CN(c2nc(N3CCOCC3)c3ccc(-c4cccc5ccccc45)nc3n2)C[C@H](C)O1 [Example 1an]
< 1 µM	CC(=O)Nc1cccc(-c2ccc3c(N4CCOCC4)nc(N4C[C@@H](C)O[C@@H](C)C4)nc3n2)c1 [Example 1ab]
< 1 µM	C[C@@H]1CN(c2nc(N3CCOCC3)c3ccc(Nc4ccsc4)nc3n2)C[C@H](C)O1 [Example 2aq]
< 1 µM	C[C@@H]1CN(c2nc(N3CCOCC3)c3ccc(Nc4ccc(Cl)cc4O)nc3n2)C[C@H](C)O1 [Example 2aa]
< 0.1 µM	CCC1CCCCN1c1nc(N2CCOCC2)c2ccc(-c3ccc(OC)c(CO)c3)nc2n1 (stereo not shown) [Example 1bc]
< 0.1 µM	C[C@@H]1CN(c2nc(N3CCOCC3)c3ccc(-c4ccc(O)cc4)nc3n2)C[C@H](C)O1 [Example 1l]
< 0.1 µM	C[C@@H]1CN(c2nc(N3CCOCC3)c3ccc(-c4cccc(CO)c4)nc3n2)C[C@H](C)O1 [Example 1q]
< 0.1 µM	C[C@@H]1CN(c2nc(N3CCOCC3)c3ccc(-c4ccsc4)nc3n2)C[C@H](C)O1 [Example 1i]
